Source: ChEMBL document CHEMBL3817790 (Medchemcomm, 2016)

Experiments:
Trypanosoma cruzi [1] = test: Antitrypanosomal activity against epimastigote stage of Trypanosoma cruzi Y assessed as reduction in parasitic count after 96 hrs by Neubauer hemocytometry; assay type: functional, organism-based
[2] = Cytotoxicity against African green monkey Vero cells after 72 hrs by MTT assay; assay type: cell-based; conditions: chlorocebus sabaeus
Trypanosoma cruzi [3] = test: Antitrypanosomal activity against trypomastigote stage of Trypanosoma cruzi Y assessed as reduction in parasitic viability after 24 hrs by Pizzi-Brener method; assay type: functional, organism-based
Leishmania amazonensis = test: Antileishmanial activity against promastigote stage of Leishmania amazonensis MHOM/BR/75/Josefa assessed as reduction in parasitic count after 72 hrs by Neubauer hemocytometry; assay type: functional, organism-based
Leishmania donovani = test: Antileishmanial activity against promastigote stage of Leishmania donovani after 2 hrs by [3H]thymidine incorporation assay; assay type: functional, organism-based

Compound	IC50 (Trypanosoma cruzi [1])	EC50 (Trypanosoma cruzi [3])	IC50 (Leishmania amazonensis)	IC50 (Leishmania donovani)	CC50 at 72 h [2]
COc1ccc(/C=C(\C)C(C)=O)cc1	> 100 µM	> 100 µM	> 100 µM		240 µM
COc1ccc(/C=C(\C)C(=O)/C=C/c2ccccc2Br)cc1	21.7 µM	25 µM	21.7 µM		71 µM
COc1ccc(/C=C(\C)C(=O)/C=C/c2ccc(Br)cc2)cc1	20 µM	21.1 µM	17.3 µM		31.2 µM
COc1ccc(/C=C(\C)C(=O)/C=C/c2ccc(/C=C/C(=O)/C(C)=C/c3ccc(OC)cc3)cc2)cc1	> 100 µM	> 100 µM	76.3 µM		460 µM
COc1ccc(/C=C(\C)C(=O)/C=C/c2c(Cl)cccc2Cl)cc1	19.6 µM	27.9 µM	8.2 µM		65.7 µM
COc1ccc(/C=C(\C)C(=O)/C=C/c2ccc(Cl)cc2)cc1	18.9 µM	23 µM	13.8 µM		87 µM
CC/C(=C\c1ccc(Cl)cc1)C(=O)/C=C/c1ccc(C=O)cc1	65.2 µM	74.2 µM	17.4 µM		46.9 µM
COc1cc(/C=C/C(=O)c2ccc(O)c(O)c2)c(OC)c(OC)c1O				3.7 µM	
CC/C(=C\c1ccc(Cl)cc1)C(C)=O	> 100 µM	> 100 µM	58 µM		136 µM
O=C(Cn1ccnc1[N+](=O)[O-])NCc1ccccc1 [BENZNIDAZOLE]	6.5 µM	34.5 µM			

More lines, in order of falling IC50 (Trypanosoma cruzi [1]), values ahead:

IC50 (Trypanosoma cruzi [1])	EC50 (Trypanosoma cruzi [3])	IC50 (Leishmania amazonensis)	IC50 (Leishmania donovani)	Compound	CC50 at 72 h [2]
17.8 µM	21.8 µM	19.5 µM		COc1ccc(/C=C(\C)C(=O)/C=C/c2ccccc2Cl)cc1	74.3 µM
17.2 µM	20.3 µM	17.2 µM		COc1ccc(/C=C(\C)C(=O)/C=C/c2cccc(Br)c2)cc1	152 µM
16.8 µM	14.8 µM	13.8 µM		COc1ccc(/C=C(\C)C(=O)/C=C/c2cccc(Cl)c2Cl)cc1	119 µM
15.2 µM	67.6 µM	32.2 µM		COc1ccc(/C=C(\C)C(=O)/C=C/c2ccccc2F)cc1	81.2 µM
15.1 µM	19.7 µM	19.3 µM		COc1ccc(/C=C(\C)C(=O)/C=C/c2ccc(F)cc2)cc1	68.1 µM
10.2 µM	25.6 µM	2.4 µM		CC/C(=C\c1ccc(Cl)cc1)C(=O)/C=C/c1ccc(Cl)cc1	28.3 µM
9.7 µM	66.7 µM	9.8 µM		COc1ccc(/C=C(\C)C(=O)/C=C/c2ccc(OC)c(OC)c2)cc1	74.2 µM
6.1 µM	69.2 µM	3.7 µM		COc1ccc(/C=C(\C)C(=O)/C=C/c2cc(OC)c(OC)c(OC)c2)cc1	21.4 µM
5.5 µM	19.1 µM	2 µM		CC/C(=C\c1ccc(Cl)cc1)C(=O)/C=C/c1cccc(OC)c1OC	21.8 µM
5.4 µM	19.5 µM	1.4 µM		CC/C(=C\c1ccc(Cl)cc1)C(=O)/C=C/c1ccc(Br)cc1	29.4 µM
2.8 µM	7.6 µM	2.9 µM		CC/C(=C\c1ccc(Cl)cc1)C(=O)/C=C/c1ccc2c(c1)OCO2	27.1 µM
2.5 µM	17.9 µM	0.5 µM		CC/C(=C\c1ccc(Cl)cc1)C(=O)/C=C/c1ccc([N+](=O)[O-])cc1	36 µM
1.8 µM	20 µM	1.3 µM		CC/C(=C\c1ccc(Cl)cc1)C(=O)/C=C/c1ccccc1Br	24.4 µM
